Values after ≈ are worked out from the molar mass of the structure shown. Like-named read-outs stand apart in the source and are kept apart here.
Key:
[1] = tested on: human monocytic leukemia THP-1 cells; details: assessed in this line formerly; cited from earlier work
[2] = Lipophilicity determination by RP-HPLC (capacity factor, log k); type: physicochemical; details: RP-HPLC capacity factor logarithm; C18 column, MeOH 60% / H2O 40%, 40 °C
Method: Lipophilicity of the studied compounds was determined by RP-HPLC as capacity factor logarithm (log k) and calculated as log P using ACD/Percepta software. […] It is important to note that lipophilicity also has a great impact on target and off-target interactions, as mentioned below.
A HPLC system Agilent 1200 equipped with DAD detector (Agilent, Santa Clara, CA, USA) was used. A chromatographic column Symmetry® C18 5 μm, 4.6 × 250 mm, Part No. WAT054275, (Waters Corp., Milford, MA, USA) was used. The HPLC separation process was monitored and evaluated by EZChrom Elite software ver. 3.3.2 (Agilent). Isocratic elution by a mixture of MeOH p.a. (60%) and H2O-HPLC Mili-Q grade (40%) as a mobile phase was used. The total flow of the column was 1.0 mL/min, injection 20 μL, column temperature 40 °C and sample temperature 10 °C. The detection wavelength 210 nm was chosen. The KI methanolic solution was used for the dead time (tD) determination. Retention times (tR) were measured in minutes. The capacity factors k were calculated according to formula k = (tR − tD)/tD, where tR is the retention time of the solute, whereas tD denotes the dead time obtained using an unretained analyte. Log k, calculated from the capacity factor k, is used as the lipophilicity index converted to log P scale.

M. kansasii DSM 44162 = test: In vitro antimycobacterial evaluation, broth dilution micro-method; type: cell-based; details: Mycobacterium kansasii, DSM44162, 168 h, Middlebrook 7H9, 7 days, 37 °C
[3] = tested on: Staphylococcus aureus ATCC 29213; test: In vitro antibacterial susceptibility testing, broth dilution micro-method; type: cell-based; details: ATCC29213, MH broth, 24 h, 37 °C
Method: (§1) The synthesized compounds were evaluated for in vitro antibacterial activity against representatives of multidrug-resistant bacteria, clinical isolates of methicillin-resistant Staphylococcus aureus (MRSA) 63718, SA 630 and SA 3202 that were obtained from the National Institute of Public Health, Prague, Czech Republic. Staphylococcus aureus ATCC 29213 was used as a reference and quality control strain. Ampicillin (Sigma-Aldrich) was used as the standard. Prior to testing, each strain was passaged onto nutrient agar (Oxoid, Hampshire, UK) with 5% of bovine blood, and bacterial inocula were prepared by suspending a small portion of bacterial colony in sterile phosphate buffered saline (pH 7.2–7.3). The cell density was adjusted to 0.5 McFarland units using a densitometer (Densi-La-Meter, LIAP, Riga, Latvia). The final inoculum was made by 1:20 dilution of the suspension with the Mueller-Hinton broth (MH broth). […] The broth dilution micro-method modified according to NCCLS guidelines in MH broth was used to determine the minimum inhibitory concentration (MIC). Drug-free controls, sterility controls and controls consisted of MH broth and DMSO alone were included. The determination of results was performed visually after 24 h of static incubation in the darkness at 37 °C in an aerobic atmosphere. The MICs were defined as the lowest concentration of the compound at which no visible bacterial growth was observed.

[4] = tested on: methicillin-resistant Staphylococcus aureus (MRSA) 63718; test: as above; type: cell-based; details: Staphylococcus aureus; clinical isolate MRSA 63718; MH broth, 24 h, 37 °C
Method: as §1

[5] = tested on: photosynthetic electron transport (PET) in spinach chloroplasts; test: Inhibition of photosynthetic electron transport (PET) in spinach chloroplasts (DCPIP photoreduction); type: biochemical, Spinacia oleracea L.
Method: Chloroplasts were prepared from spinach (Spinacia oleracea L.) according to Masarovicova and Kralova. The inhibition of photosynthetic electron transport (PET) in spinach chloroplasts was determined spectrophotometrically (Genesys 6, Thermo Scientific), using an artificial electron acceptor 2,6-dichlorophenol-indophenol (DCIPP) according to Kralova et al., and the rate of photosynthetic electron transport was monitored as a photoreduction of DCPIP. The measurements were carried out in phosphate buffer (0.02 mol/L, pH 7.2) containing sucrose (0.4 mol/L), MgCl2 (0.005 mol/L) and NaCl (0.015 mol/L). The chlorophyll content was 30 mg/L in these experiments and the samples were irradiated (~100 W/m^2 with 10 cm distance) with a halogen lamp (250 W) using a 4 cm water filter to prevent warming of the samples (suspension temperature 22 °C). The studied compounds were dissolved in DMSO due to their limited water solubility. […] The inhibitory efficiency of the studied compounds was expressed by IC50 values, i.e., by molar concentration of the compounds causing 50% decrease in the oxygen evolution rate relative to the untreated control.

[6] = tested on: Mycobacterium marinum CAMP 5644; test: In vitro antimycobacterial evaluation, broth dilution micro-method; type: cell-based; details: CAMP5644, 504 h, Middlebrook 7H9, 21 days, 28 °C
[7] = tested on: methicillin-resistant S. aureus SA 630; test: In vitro antibacterial susceptibility testing, broth dilution micro-method; type: cell-based, Staphylococcus aureus; details: Staphylococcus aureus; clinical isolate MRSA SA 630; MH broth, 24 h, 37 °C
Method: as §1

[8] = tested on: methicillin-resistant S. aureus SA 3202; test: as above; type: cell-based, Staphylococcus aureus; details: Staphylococcus aureus; clinical isolate MRSA SA 3202; MH broth, 24 h, 37 °C
Method: as §1

[9] = tested on: human monocytic leukemia THP-1 cells; type: cell-based; details: 24 h
Method: Human monocytic leukemia THP-1 cells were used for in vitro toxicity assay. Cells were obtained from the European Collection of Cell Cultures (ECACC, Salisbury, UK) and routinely cultured in RPMI medium supplemented with 10% fetal bovine serum, 2% L-glutamine, 1% penicillin and streptomycin at 37 °C with 5% CO2. Cytotoxicity was determined using a WST-1 assay kit (Roche Diagnostics, Mannheim, Germany) according to the manufacturer’s instructions. The tested compounds were dissolved in DMSO and added in five increasing concentrations (0.37, 1.1, 3.3, 10, and 30 μmol/L) to the cell suspension in the culture medium. Subsequently, the cells were incubated for 24 h at 37 °C with 5% CO2. WST-1 assays conducted in triplicates were performed as previously described. The median lethal dose values, LD50, were deduced through the production of a dose-response curve. All data were evaluated using GraphPad Prism 5.00 software (GraphPad Software, San Diego, CA, USA).

[10] = phosphate buffer pH 7.2, DCPIP acceptor

| Structure (SMILES) | log k [2] | MIC (M. kansasii DSM 44162) [µM] | MIC [3] [µM] | MIC [4] [µM] | IC50 ([5]; as quoted in the chlorophyll a fluorescence discussion) [µM] | IC50 [5, 10] [µM] | MIC [6] [µM] | MIC [7] [µM] | MIC [8] [µM] | LD50 [1] [µmol/L] | LD50 [9] [µmol/L] |
| --- | --- | --- | --- | --- | --- | --- | --- | --- | --- | --- | --- |
| CC[C@@]1(O)C(=O)OCc2c1cc1n(c2=O)Cc2cc3ccccc3nc2-1 [camptothecin] | – | – | – | – | – | – | – | – | – | 0.20 ± 0.07 | – |
| O=C(Nc1ccccc1[N+](=O)[O-])c1cc2ccccc2cc1O [compound 8a, 3-Hydroxy-N-(2-nitrophenyl)naphthalene-2-carboxamide] | 0.8710 | 830 (≈ 256 µg/mL) | > 830 | > 830 | – | 107 | 830 (≈ 256 µg/mL) | 415 (≈ 128 µg/mL) | 415 (≈ 128 µg/mL) | – | – |
| O=C(Nc1cccc([N+](=O)[O-])c1)c1cc2ccccc2cc1O [compound 8b, 3-Hydroxy-N-(3-nitrophenyl)naphthalene-2-carboxamide] | 0.8143 | 415 (≈ 128 µg/mL) | > 830 | > 830 | – | 16.9 | > 830 | > 830 | > 830 | – | 2.5 ± 0.9 |

Continued by falling MIC (M. kansasii DSM 44162), values first:

| log k [2] | MIC (M. kansasii DSM 44162) [µM] | MIC [3] [µM] | MIC [4] [µM] | IC50 ([5]; as quoted in the chlorophyll a fluorescence discussion) [µM] | IC50 [5, 10] [µM] | MIC [6] [µM] | MIC [7] [µM] | MIC [8] [µM] | Structure (SMILES) | LD50 [1] [µmol/L] | LD50 [9] [µmol/L] |
| --- | --- | --- | --- | --- | --- | --- | --- | --- | --- | --- | --- |
| 0.8762 | 193 (≈ 63.9 µg/mL) | > 773 | > 773 | 105 | 105 | 193 (≈ 63.9 µg/mL) | > 773 | 97 (≈ 32.1 µg/mL) | O=C(Nc1ccccc1C(F)(F)F)c1cc2ccccc2cc1O [compound 7a, 3-Hydroxy-N-(2-trifluoromethylphenyl)naphthalene-2-carboxamide] | – | 28.6 ± 0.5 |
| 0.9175 | 13 (≈ 4.01 µg/mL) | > 830 | > 830 | – | 188 | > 830 | > 830 | > 830 | O=C(Nc1ccc([N+](=O)[O-])cc1)c1cc2ccccc2cc1O [compound 8c, 3-Hydroxy-N-(4-nitrophenyl)naphthalene-2-carboxamide] | – | – |

Reference: paper PMC6270455, “Antibacterial and Herbicidal Activity of Ring-Substituted 3-Hydroxynaphthalene-2-carboxanilides” (Molecules, 2013)
